SMILES strings stand for the structures. Several values for one entry are separate records, joined by “and”; a condition that tells them apart may be missing. Equal entries are not always repeated.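 Results reflect a 48-hour exposure of cells in 96-well plates to compound at five concentrations. GI50 = concentration required for 50% inhibition of growth. TGI denotes the concentration required for complete inhibition of growth.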 Where only a bound is given, the exact number is not on record here.

What all share (assay): NCI tumour cell line growth inhibition, 48 h
In test [1] the test system is ACHN renal.
The test system of test [2] is CCRF-CEM leukemia.
In test [3] the test system is COLO 205 colon.
For test [4], the system named is EKVX NSCLC.
The subject of test [5] is HOP-62 NSCLC.
The test system of test [6] is KM12 colon.
Test [7] concerns MCF7 breast.
In test [8] the test system is OVCAR-4 ovarian.
Test [9] relates to OVCAR-5 ovarian.
Test [10] has as its system NCI-H522 lung.
Test [11] deals with SF-539 CNS.
The test system of test [12] is SNB-75 CNS.
In test [13] the test system is IGROV1 ovarian.
Test [14] has as its system T-47D breast.
For test [15], the system named is HS 578T breast.

In the case of `CC(Nc1n[nH]c(=O)c2c1nnn2Cc1ccccc1)c1ccccc1` (centres undefined), the TGI in test [1] was greater than 100 µM; in test [2] it was greater than 100 µM; in test [3], greater than 100 µM; in test [4], greater than 100 µM; in test [5], > 100 µM and 86 µM; in [6], greater than 100 µM. For the same compound, the TGI in [7], in test [8] and in test [9] was greater than 100 µM each time. For the same compound, the GI50 was > 100 µM and 21.7 µM in test [5]; > 100 µM and 26.8 µM in [8].
For `COc1ccc(/C=C(\Cl)c2ccc(OC)cc2)cc1`, the TGI in test [1], in test [2], in test [3], in test [4], in [5] and in test [6] was greater than 100 µM in each case. In addition, the TGI in [10], in [8], in test [9], in test [11] and in test [12] was greater than 100 µM in each case.
`CC(=O)C1=NN(c2ccccc2)C2(S1)SC(c1ccccc1)(c1ccccc1)c1ccccc12` (centres undefined): the TGI in test [1], in test [2], in [3], in [4], in [5] and in [13] was greater than 100 µM throughout. In addition, the TGI in test [6] is greater than 100 µM; in [10], 80.1 µM; in test [8] it was 79.6 µM; in test [11], greater than 100 µM; in [12], 71.1 µM.
For the compound `N#Cc1c(N2CCOCC2)ncn(-c2ccc(Cl)cc2)c1=O`, the TGI in test [1], in test [2], in [3], in [4], in test [5] and in test [13] was greater than 100 µM throughout. In addition, the TGI in test [6], in test [7], in test [9], in test [11], in test [12] and in test [14] was greater than 100 µM in each case.
Turning to `COC(=O)CCC1(O)C=CC(=O)C=C1`, the TGI was greater than 100 µM in [1]; greater than 100 µM in test [2]; 40.2 µM in test [3]; greater than 100 µM in test [4]; greater than 100 µM in [5]; greater than 100 µM in test [15]. Besides, the TGI in test [13] was greater than 100 µM; in [6] it was greater than 100 µM; in test [7], greater than 100 µM; in test [10], 28.8 µM; in [8], greater than 100 µM; in [9], greater than 100 µM. Further, the TGI in test [11] is 76.4 µM; in test [12] it was greater than 100 µM.
In the case of `Cc1ccc(-n2cc(-c3ccc(Cl)cc3)c3c2N=CN2NC(c4cccs4)=NC32)cc1` (centres undefined), the TGI is 19.2 µM in test [1]; 42.4 µM in test [2]; 28.7 µM in test [3]; 57.1 µM in test [4]; 35.2 µM in test [5]; 6.52 µM in test [15]. Also, the TGI in [13] is 34.7 µM; in test [7], greater than 100 µM; in [10] it was greater than 100 µM; in test [8] it was 6.17 µM; in test [9], 51 µM; in [11], 45.2 µM. Besides, the TGI in [12] stood at 23.4 µM.
`COc1ccc(C2C(Cl)C(=O)N2NC(=O)c2ccccc2O)cc1OC` (centres undefined): the TGI in test [1], in [2], in test [13], in [6], in test [10] and in [8] was greater than 100 µM each time. The TGI in test [11] was greater than 100 µM.
As for `CC#Cc1c(C#CC)c(OC)c2c(c1OC)C(=O)c1ccccc1C2=O`, the TGI in [1] is 34.8 µM; in test [2], greater than 100 µM; in test [3] it was greater than 100 µM; in [4], greater than 100 µM; in test [5], 45.4 µM; in test [13], greater than 100 µM. Also, the TGI was greater than 100 µM in [6], 42.5 µM in test [10], greater than 100 µM in test [8] and greater than 100 µM in [9].
Regarding `O=C1c2ccccc2C(=O)c2c(O)c(NCCNCCO)cc(O)c21`, the TGI in test [1] came out at 8.93 µM; in test [2] it was 13.2 µM; in test [4] it was 14.4 µM; in [5], 11.5 µM; in [13] it was 6.62 µM; in [6], 15.7 µM. For the same compound, the TGI was determined as 15.7 µM in test [8], 21.8 µM in test [9], 14.4 µM in [11] and 17.9 µM in [12].
Regarding `O=C1Cc2ccccc2CCc2ccsc21`, the TGI in test [2], in [3], in [4], in test [13], in [6] and in test [10] was greater than 100 µM throughout. In addition, the TGI in test [8], in test [9], in test [11] and in [12] was greater than 100 µM in each case.
For `CC1(C)N=C(Oc2ccccc2)n2nccc2N1`, the TGI in test [1], in test [2], in [3], in test [4], in test [5] and in test [13] was greater than 100 µM throughout. For the same compound, the TGI in test [6], in test [10], in [8], in test [9], in test [11] and in test [12] was greater than 100 µM throughout.
Regarding `COc1ccccc1Cn1[nH]c(=O)c2cc([N+](=O)[O-])ccc21`, the TGI in test [1], in test [2], in [3], in test [4], in test [5] and in test [15] was greater than 100 µM each time. The TGI in test [13], in test [6], in test [10], in [8], in [9] and in [11] was greater than 100 µM throughout. In addition, the TGI in test [12] is greater than 100 µM.

For the origin of these results see PubChem BioAssay (NCI).
